What was measured:
[1] = tested on: pathogenic bacteria causing bacterial angular leaf spot in cucumbers; experiment: In vitro bactericidal activity, bacterial angular leaf spot in cucumbers; format: cell-based, pseudomonas; details: read-out: inhibitory rate; for inhibition at 1 ppm: dosage 1 ppm; for inhibition at 5 ppm: dosage 5 ppm
[2] = tested on: pathogenic bacteria causing bacterial wilt in tobacco; experiment: whole plant or invertebrate; format: cell-based, ralstonia; details: read-out: inhibitory rate
[3] = tested on: pathogenic bacteria causing black shank in potatoes; experiment: In vitro bactericidal activity, black shank in potatoes; format: cell-based; details: read-out: inhibitory rate; for inhibition at 1 ppm: dosage 1 ppm; for inhibition at 5 ppm: dosage 5 ppm
[4] = tested on: pathogenic bacteria causing stem rot in sweet potatoes; experiment: In vitro bactericidal activity, stem rot in sweet potatoes; format: cell-based, dikia; details: read-out: inhibitory rate; for inhibition at 1 ppm: dosage 1 ppm; for inhibition at 5 ppm: dosage 5 ppm
[5] = tested on: pathogenic bacteria causing bacterial blight in rice; experiment: whole plant or invertebrate; format: cell-based, xanthomonas; details: read-out: inhibitory rate
[6] = tested on: pathogenic bacteria causing fruit blotch in watermelons; experiment: In vitro bactericidal activity, fruit blotch in watermelons; format: cell-based, acidovorax; details: read-out: inhibitory rate; for inhibition at 1 ppm: dosage 1 ppm; for inhibition at 5 ppm: dosage 5 ppm
[7] = tested on: pathogenic bacteria causing black rot in Chinese cabbages; experiment: In vitro bactericidal activity, black rot in Chinese cabbages; format: cell-based, xanthomonas; details: Xanthomonas, read-out: inhibitory rate; for inhibition at 1 ppm: dosage 1 ppm; for inhibition at 5 ppm: dosage 5 ppm
[8] = tested on: pathogenic bacteria causing bacterial wilt in cassava; experiment: organism not typed; format: cell-based; details: read-out: inhibitory rate
[9] = tested on: pathogenic bacteria causing fire blight in pears; experiment: In vitro bactericidal activity, fire blight in pears; format: cell-based, erwinia; details: Erwinia, read-out: inhibitory rate; for inhibition at 1 ppm: dosage 1 ppm; for inhibition at 5 ppm: dosage 5 ppm
[10] = tested on: black shank in potatoes; experiment: Living crops in vivo protective activity, potatoes (root irrigation); details: Solanum tuberosum, read-out: efficacy against black shank in potatoes; for pest or weed control at 5 ppm: dosage 5 ppm; for pest or weed control at 10 ppm: dosage 10 ppm
Protocol: Root irrigation was carried out on the potatoes for tests according to the designed concentration of the agents. The dosage for each plant was 200 mL and was kept consistent (also for the control). The black shank bacteria were inoculated on the second day after the application. The results were investigated according to the disease condition.

[11] = tested on: indoor potted cucumber seedlings; experiment: Effect of improving growth and development of crops; format: in vivo; parameters: Rate of growth rate increase (%): concentration or dose not given beside the values; details: versus blank control; for Rate of chlorophyll content increase (%) / Rate of leaf area increase (%): 14 days after application; for Rate of growth rate increase (%): plant height 14 days after application; for Rate of leaf area increase (%): second leaf
How it was run: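 Before treatment, plant height and the second leaf's length and width are recorded. After 14 days these are repeated, chlorophyll is read by meter, and percentage increases in growth rate, leaf area and chlorophyll are computed.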

[12] = tested on: cucumber seedlings; experiment: Safety for plant growth after application; format: in vivo; details: dosage 200 ppm
How it was run: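 Potted cucumber seedlings grown indoors; read-outs: plant-height growth rate, chlorophyll content, leaf area.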

[13] = tested on: bacterial wilt in tobacco; experiment: whole plant or invertebrate; details: Nicotiana tabacum, read-out: efficacy against bacterial wilt in tobacco
[14] = tested on: stem rot in sweet potatoes; experiment: whole plant or invertebrate; details: read-out: efficacy against stem rot in sweet potatoes
[15] = tested on: bacterial blight in rice; experiment: whole plant or invertebrate; details: Oryza sativa, read-out: efficacy against bacterial blight in rice
[16] = tested on: fruit blotch in watermelons; experiment: whole plant or invertebrate; details: read-out: efficacy against fruit blotch in watermelons
[17] = tested on: soft rot in Chinese cabbages; experiment: whole plant or invertebrate; details: 48 h, read-out: efficacy against soft rot in Chinese cabbages

CCOCCOC(=O)c1cn(C2CC2)c2cc(OC)c(F)cc2c1=O [Compound 326]
safe for plant growth: safety for plant growth (discoloration, necrosis, wilt, malformation) [12]
13%: Rate of growth rate increase (%) [11]
≥ 90%: inhibition at 1 ppm [1] | inhibition at 5 ppm [1] | inhibition at 1 ppm [2] | inhibition at 5 ppm [2] | inhibition at 1 ppm [3] | inhibition at 5 ppm [3] | inhibition at 1 ppm [4] | inhibition at 5 ppm [4] | inhibition at 1 ppm [5] | inhibition at 5 ppm [5] | inhibition at 1 ppm [6] | inhibition at 5 ppm [6] | inhibition at 1 ppm [7] | inhibition at 5 ppm [7] | inhibition at 1 ppm [8] | inhibition at 5 ppm [8] | inhibition at 1 ppm [9] | inhibition at 5 ppm [9] | pest or weed control at 5 ppm [10] | pest or weed control at 10 ppm [10] | pest or weed control at 5 ppm [13] | pest or weed control at 10 ppm [13] | pest or weed control at 5 ppm [14] | pest or weed control at 10 ppm [14] | pest or weed control at 5 ppm [15] | pest or weed control at 10 ppm [15] | pest or weed control at 5 ppm [16] | pest or weed control at 10 ppm [16] | pest or weed control at 5 ppm [17] | pest or weed control at 10 ppm [17]
15%: Rate of chlorophyll content increase (%) [11] | Rate of leaf area increase (%) [11]

O=C(OCCCO)c1cn(C2CC2)c2cc(OCC(F)(F)F)c(F)cc2c1=O [Compound 329]
≥ 90%: inhibition at 1 ppm [1] | inhibition at 5 ppm [1] | inhibition at 1 ppm [2] | inhibition at 5 ppm [2] | inhibition at 1 ppm [3] | inhibition at 5 ppm [3] | inhibition at 1 ppm [4] | inhibition at 5 ppm [4] | inhibition at 1 ppm [5] | inhibition at 5 ppm [5] | inhibition at 1 ppm [6] | inhibition at 5 ppm [6] | inhibition at 1 ppm [7] | inhibition at 5 ppm [7] | inhibition at 1 ppm [8] | inhibition at 5 ppm [8] | inhibition at 1 ppm [9] | inhibition at 5 ppm [9] | pest or weed control at 5 ppm [10] | pest or weed control at 10 ppm [10] | pest or weed control at 5 ppm [13] | pest or weed control at 10 ppm [13] | pest or weed control at 5 ppm [14] | pest or weed control at 10 ppm [14] | pest or weed control at 5 ppm [15] | pest or weed control at 10 ppm [15] | pest or weed control at 5 ppm [16] | pest or weed control at 10 ppm [16] | pest or weed control at 5 ppm [17] | pest or weed control at 10 ppm [17]
13%: Rate of growth rate increase (%) [11]
17%: Rate of chlorophyll content increase (%) [11] | Rate of leaf area increase (%) [11]
safe for plant growth: safety for plant growth (discoloration, necrosis, wilt, malformation) [12]

CCOCCOC(=O)c1cn(C2CC2)c2cc(OCC(F)(F)F)c(F)cc2c1=O [Compound 335]
16%: Rate of chlorophyll content increase (%) [11] | Rate of leaf area increase (%) [11]
≥ 90%: inhibition at 1 ppm [1] | inhibition at 5 ppm [1] | inhibition at 1 ppm [2] | inhibition at 5 ppm [2] | inhibition at 1 ppm [3] | inhibition at 5 ppm [3] | inhibition at 1 ppm [4] | inhibition at 5 ppm [4] | inhibition at 1 ppm [5] | inhibition at 5 ppm [5] | inhibition at 1 ppm [6] | inhibition at 5 ppm [6] | inhibition at 1 ppm [7] | inhibition at 5 ppm [7] | inhibition at 1 ppm [8] | inhibition at 5 ppm [8] | inhibition at 1 ppm [9] | inhibition at 5 ppm [9] | pest or weed control at 5 ppm [10] | pest or weed control at 10 ppm [10] | pest or weed control at 5 ppm [13] | pest or weed control at 10 ppm [13] | pest or weed control at 5 ppm [14] | pest or weed control at 10 ppm [14] | pest or weed control at 5 ppm [15] | pest or weed control at 10 ppm [15] | pest or weed control at 5 ppm [16] | pest or weed control at 10 ppm [16] | pest or weed control at 5 ppm [17] | pest or weed control at 10 ppm [17]
12%: Rate of growth rate increase (%) [11]
safe for plant growth: safety for plant growth (discoloration, necrosis, wilt, malformation) [12]

CCOc1ccc2c(=O)c(C(=O)OCCOC)cn(C3CC3)c2c1 [Compound 342]
11%: Rate of leaf area increase (%) [11]
safe for plant growth: safety for plant growth (discoloration, necrosis, wilt, malformation) [12]
≥ 90%: inhibition at 1 ppm [1] | inhibition at 5 ppm [1] | inhibition at 1 ppm [2] | inhibition at 5 ppm [2] | inhibition at 1 ppm [3] | inhibition at 5 ppm [3] | inhibition at 1 ppm [4] | inhibition at 5 ppm [4] | inhibition at 1 ppm [5] | inhibition at 5 ppm [5] | inhibition at 1 ppm [6] | inhibition at 5 ppm [6] | inhibition at 1 ppm [7] | inhibition at 5 ppm [7] | inhibition at 1 ppm [8] | inhibition at 5 ppm [8] | inhibition at 1 ppm [9] | inhibition at 5 ppm [9] | pest or weed control at 5 ppm [10] | pest or weed control at 10 ppm [10] | pest or weed control at 5 ppm [13] | pest or weed control at 10 ppm [13] | pest or weed control at 5 ppm [14] | pest or weed control at 10 ppm [14] | pest or weed control at 5 ppm [15] | pest or weed control at 10 ppm [15] | pest or weed control at 5 ppm [16] | pest or weed control at 10 ppm [16] | pest or weed control at 5 ppm [17] | pest or weed control at 10 ppm [17]
9%: Rate of chlorophyll content increase (%) [11] | Rate of growth rate increase (%) [11]

COCCOC(=O)c1cn(C2CC2)c2cc(OCC(F)(F)F)ccc2c1=O [Compound 364]
safe for plant growth: safety for plant growth (discoloration, necrosis, wilt, malformation) [12]
≥ 80%: inhibition at 1 ppm [1] | inhibition at 1 ppm [2] | inhibition at 1 ppm [3] | inhibition at 1 ppm [4] | inhibition at 1 ppm [5] | inhibition at 1 ppm [6] | inhibition at 1 ppm [7] | inhibition at 1 ppm [8] | inhibition at 1 ppm [9] | pest or weed control at 5 ppm [10] | pest or weed control at 5 ppm [15] | pest or weed control at 5 ppm [17]
9%: Rate of leaf area increase (%) [11]
≥ 90%: inhibition at 5 ppm [1] | inhibition at 5 ppm [2] | inhibition at 5 ppm [3] | inhibition at 5 ppm [4] | inhibition at 5 ppm [5] | inhibition at 5 ppm [6] | inhibition at 5 ppm [7] | inhibition at 5 ppm [8] | inhibition at 5 ppm [9] | pest or weed control at 10 ppm [10] | pest or weed control at 5 ppm [13] | pest or weed control at 10 ppm [13] | pest or weed control at 5 ppm [14] | pest or weed control at 10 ppm [14] | pest or weed control at 10 ppm [15] | pest or weed control at 5 ppm [16] | pest or weed control at 10 ppm [16] | pest or weed control at 10 ppm [17]
12%: Rate of chlorophyll content increase (%) [11]
7%: Rate of growth rate increase (%) [11]

CCSc1cc2c(cc1F)c(=O)c(C(=O)OCCO)cn2C1CC1 [Compound 372]
11%: Rate of chlorophyll content increase (%) [11]
≥ 90%: inhibition at 1 ppm [1] | inhibition at 5 ppm [1] | inhibition at 1 ppm [2] | inhibition at 5 ppm [2] | inhibition at 1 ppm [3] | inhibition at 5 ppm [3] | inhibition at 1 ppm [4] | inhibition at 5 ppm [4] | inhibition at 1 ppm [5] | inhibition at 5 ppm [5] | inhibition at 1 ppm [6] | inhibition at 5 ppm [6] | inhibition at 1 ppm [7] | inhibition at 5 ppm [7] | inhibition at 1 ppm [8] | inhibition at 5 ppm [8] | inhibition at 1 ppm [9] | inhibition at 5 ppm [9] | pest or weed control at 5 ppm [10] | pest or weed control at 10 ppm [10] | pest or weed control at 5 ppm [13] | pest or weed control at 10 ppm [13] | pest or weed control at 5 ppm [14] | pest or weed control at 10 ppm [14] | pest or weed control at 5 ppm [15] | pest or weed control at 10 ppm [15] | pest or weed control at 5 ppm [16] | pest or weed control at 10 ppm [16] | pest or weed control at 5 ppm [17] | pest or weed control at 10 ppm [17]
safe for plant growth: safety for plant growth (discoloration, necrosis, wilt, malformation) [12]
10%: Rate of leaf area increase (%) [11]
8%: Rate of growth rate increase (%) [11]

Reference: patent US20250313533A1, “QUINOLINE CARBOXYLIC ACID ESTER COMPOUND AND PREPARATION METHOD AND USE THEREOF” (priority 2019, published 2025)
